Results as given in patent publication US12076394B2, “Cytosolic delivery of peptides using protein transduction domain mimics” (University of Massachusetts, priority 2020, dated 2024).
Read-outs that look alike come from different tables or passages of the source. Where no end group is shown, it is not given here. FAM = Fluorescein Amidites label

Legend:
[1] = system: whole blood; test: Inflammatory cytokine panel (cytometric bead array) after co-delivery of SIINFEKL and CpG into whole blood; settings: 24 hours after 60-minute treatment
Method: (§1) A multi-analyte inflammatory cytokine panel was used to understand the immune response when CpG was added to the complexes. GpC, a nonfunctional analogue of CpG, was included as a negative control to preclude the role of nonspecific TLR9 activation during incubation. At 24 hours, following the 60-minute treatment with the non-covalent polymer-[sequence]-CpG complexes, supernatants from whole blood were tested the inflammatory cytokines: IL-1β, IFN-α, IFN-γ, TNF-α, MCP-1, IL-6, IL-8, IL-10, IL-12p70, IL-17A, IL-18, IL-23, and IL-33.
(§2) Whole human blood was obtained from healthy volunteers under signed consent in Roche Vacutainers containing hirudin. In all cases, blood was used within 10 minutes of the tapping from the donor. The blood was distributed into Eppendorf tubes containing preassembled polymer preparations in RPMI 1640 with no supplements and incubated up to 1 hour at 37° C. on rotation (60 RPM). In general, 400 μL of blood was combined with 100 μL of polymer complex prepared in RPMI 1640 for a final volume of 500 μL.
(§3) After one hour of incubation with treatment as reported under cell preparation and culture, cells were pelleted at 400 g for 2 minutes and supernatant was removed. […] Cytokine production was detected using the human inflammation cytometric bead array Legendplex™ from BioLegend® (740118).

[2] = system: whole blood
Method: as §1, §2, §3

[3] = system: bone marrow derived dendritic cells; test: Delivery into bone marrow derived dendritic cells, flow cytometry; type: cell-based, mouse; settings: 1 μM antigen, free or with PTDM at 1:10, 4 hours
Method: To test SIINFEKL delivery and presentation for T cell activation, bone marrow derived dendritic cells were differentiated from B56 mouse bone marrow for 6 days in the presence of 20 ng/mL mouse GM-CSF. After 6 days, cells were harvested and treated with 1 μM fluorescently labeled SIINFEKL or OVA both free and in complex with PTDM molar ratio of 1:10 for 4 hours.
Immature dendritic cells were differentiated from murine bone marrow according to established protocols. (Dewitte, et al. J. Control. Release 2014, 195, 138-146.) RBCs were lysed using BioLegend® lysis buffer and cells were plated at a density of 2×10^5 cells/mL in complete RPMI (listed under cell lines) with the addition of 20 ng/mL recombinant mouse GM-CSF. Cells were cultured for 6 days with the addition of 10 mL fresh media and cytokines on day 3. Non-adherent and loosely adherent cells were harvested on day 6 and cells were pelleted, counted, and plated at a density of 2×10^6 cells/mL.
THP-1 monocytes, immature dendritic cells, and bone marrow derived dendritic cells were analyzed using a BD LSR Fortessa 20X flow cytometer with five lasers and 18 channels. […] Only cells negative for 7-AAD were assessed for either uptake or presentation of markers. Multi-color flow cytometric analysis spectral overlap was corrected by appropriate compensation and analyzed using FlowJo 10.2 (v3.05470) by Tree Star, Ashland, OR, USA.

[4] = system: whole blood; test: Delivery of FAM labeled SIINFEKL into whole blood (time and concentration survey), flow cytometry; type: cell-based, human; settings: molar ratio 1:10; 15, 30, 45 or 60 minutes; free peptide 60 minutes
Method: The specificity of the polymer-antigen complex uptake by monocytes was tested in whole blood. FAM (Fluorescein Amidites) labeled SIIFNEKL was delivered into whole blood using Me-Ph10-b-dG5 at a molar ratio of 1:10, for 15, 30, 45, or 60 minutes to investigate the kinetics of uptake. MFI and uptake in monocytes were not statistically different regardless of the incubation time. Additionally, complex uptake was compared with free SIINFEKL-FAM allowed to incubate with whole blood for 60 minutes.
FAM labeled SIINFEKL was delivered into whole blood using Me-Ph10-b-dG5 at a molar ratio of 1:10 at increasing peptide concentrations (0.25, 0.5, 1, and 2 μM).
After incubation, cells were pelleted at 200 g for 5 minutes and the supernatant was removed. Red blood cells were lysed in using BD Pharm lysis buffer and subsequently washed with 1% FBS in PBS twice before staining with antibodies. Unspecific binding was blocked for 10 minutes using human or mouse IgG respectively. Antibody surface staining was performed using Human CD14-APC, CD4O-PE, CD80-AF488, CD86-BV711, CD209-APC, HLA-DR-APC-Cy7, or mouse CD11c-AF488, CD86-AF647, HLA-DR, H-2K^b-PE as indicated by manufacturer (BD® or BioLegend®). […]

CC[C@H](C)[C@H](NC(=O)[C@@H](NC(=O)[C@@H](N)CO)[C@@H](C)CC)C(=O)N[C@@H](CC(N)=O)C(=O)N[C@@H](Cc1ccccc1)C(=O)N[C@@H](CCC(=O)O)C(=O)N[C@@H](CCCCN)C(=O)N[C@@H](CC(C)C)C(=O)O [SIINFEKL] was tested, and the “inflammatory cytokine response, in words” value [1] was “no increase in inflammatory response”.
For Me-Ph10-b-dG5 [PTDM], the “inflammatory cytokine response, in words” value [2] was “did not induce the production of inflammatory cytokines”.
For “OVA: ovalbumin protein, fluorescently labeled, free antigen”, the “uptake of fluorescently labeled SIINFEKL or OVA” value [3] was “significantly less uptake”.
For “SIINFEKL-FAM: FAM (Fluorescein Amidites) labeled SIINFEKL, free peptide (SIINFEKL-{FAM})”, the “uptake of FAM labeled SIINFEKL by leukocytes, time survey” value [4] was “not readily taken up”.
